Data on 27 compounds can be found in patent publication EP4818158A1, “BIARYL COMPOUND” (Kissei Pharmaceutical Co., Ltd., priority 2023, dated 2025).

Structures are written as SMILES. Bounds are passed on as bounds.

T2 sequence (P16473 21-764): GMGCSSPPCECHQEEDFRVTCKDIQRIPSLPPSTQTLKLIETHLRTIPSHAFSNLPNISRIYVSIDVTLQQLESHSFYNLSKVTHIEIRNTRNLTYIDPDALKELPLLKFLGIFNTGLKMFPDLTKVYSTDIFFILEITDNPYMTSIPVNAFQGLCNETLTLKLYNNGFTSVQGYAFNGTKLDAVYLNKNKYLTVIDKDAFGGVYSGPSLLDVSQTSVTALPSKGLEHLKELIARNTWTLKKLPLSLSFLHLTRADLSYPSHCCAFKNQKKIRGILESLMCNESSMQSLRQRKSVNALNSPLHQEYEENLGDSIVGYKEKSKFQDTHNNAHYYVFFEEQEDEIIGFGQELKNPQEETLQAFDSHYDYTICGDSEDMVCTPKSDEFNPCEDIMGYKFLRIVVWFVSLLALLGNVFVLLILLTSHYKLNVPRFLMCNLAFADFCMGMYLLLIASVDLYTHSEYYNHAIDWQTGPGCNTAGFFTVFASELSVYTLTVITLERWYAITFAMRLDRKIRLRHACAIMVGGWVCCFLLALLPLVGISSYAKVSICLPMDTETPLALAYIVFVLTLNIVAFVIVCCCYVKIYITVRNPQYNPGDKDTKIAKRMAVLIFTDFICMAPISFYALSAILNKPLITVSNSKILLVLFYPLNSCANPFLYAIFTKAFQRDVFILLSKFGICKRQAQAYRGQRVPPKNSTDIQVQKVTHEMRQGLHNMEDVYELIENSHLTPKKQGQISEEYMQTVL

One assay deals with T1, TSHR (Mus musculus, UniProt P47750).
T1 construct: host or cells: mice in vivo (endogenous thyroid TSHR)
T1 sequence (P47750 22-764): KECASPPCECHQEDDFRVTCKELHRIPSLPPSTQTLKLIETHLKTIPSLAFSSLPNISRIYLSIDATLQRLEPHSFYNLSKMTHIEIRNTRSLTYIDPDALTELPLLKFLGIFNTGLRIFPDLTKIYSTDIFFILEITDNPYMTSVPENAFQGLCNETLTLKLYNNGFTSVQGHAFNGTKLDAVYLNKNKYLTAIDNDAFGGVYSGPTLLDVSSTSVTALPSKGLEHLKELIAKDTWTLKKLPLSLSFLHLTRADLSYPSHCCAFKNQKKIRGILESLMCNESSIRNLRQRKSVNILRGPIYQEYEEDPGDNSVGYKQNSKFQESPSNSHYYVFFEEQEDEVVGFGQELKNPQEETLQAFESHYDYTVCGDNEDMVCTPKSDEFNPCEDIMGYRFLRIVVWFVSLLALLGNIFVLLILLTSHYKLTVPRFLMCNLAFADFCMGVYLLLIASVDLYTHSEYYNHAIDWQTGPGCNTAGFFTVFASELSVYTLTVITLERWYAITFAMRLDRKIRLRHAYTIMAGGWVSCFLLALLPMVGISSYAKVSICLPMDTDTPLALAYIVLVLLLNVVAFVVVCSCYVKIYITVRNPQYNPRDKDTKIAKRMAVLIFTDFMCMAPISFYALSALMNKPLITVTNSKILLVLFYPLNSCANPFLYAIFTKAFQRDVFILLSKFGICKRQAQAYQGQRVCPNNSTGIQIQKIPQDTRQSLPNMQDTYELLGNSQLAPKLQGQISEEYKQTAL
Assay: not given
Conditions: TSH-releasing hormone (TRH)-treated mice; cited from earlier work.
Turning to `COc1ccc(C2Nc3ccccc3C(=O)N2Cc2ccco2)cc1COc1c(C)cc(NC(C)=O)cc1C` (stereo not shown) [NCGC00242364], the “blood T4 concentration” value is reported as “blood T4 concentration lowering effect”.

Staying with this assay, now noted: thyroid stimulating antibody M22-treated mice; cited from earlier work.
As for `COc1ccc(C2Nc3ccccc3C(=O)N2Cc2ccco2)cc1COc1c(C)cc(NC(C)=O)cc1C` (stereo not shown) [NCGC00242364], the “blood T4 concentration” value is given as “blood T4 concentration lowering effect”.

Another assay concerns the target T2, human TSHR (Homo sapiens, UniProt P16473).
T2 construct: expressed in transfected cells
The experiment in a line: Antagonist activity using TSH-induced cAMP generation in human TSHR-stably expressing CHO cells. It is filed as cell-based. Conditions: human TSH 50 ng/mL. The procedure:
Measurement of antagonist activity using TSH-induced cAMP generation in human TSHR-stably expressing CHO cells as an indicator
The gene sequence (reference number: NM_000369.2) of a human TSHR was inserted into multiple cloning sites of pcDNA3.1 (+). Prepared plasmid vectors were introduced into CHO cells using a lipofection method, and human TSHR-stably expressing CHO cells were established. Obtained cells were seeded in a 96-well poly-D-lysine-coated plate at 5 × 10^4 cells/well and cultured in an F12 culture medium containing 10%FBS, 400 µg/mL of G418, 50 U/mL of penicillin, and 50 µg/mL of streptomycin under conditions of 37°C and 5% CO2 for one day. After the culture medium was removed, the cells were washed twice with 100 µL of an assay buffer solution (Hanks' Balanced Salt Solution containing 20 mM HEPES and 1 mM IBMX) per well. 30 µL of a test compound-containing assay buffer solution was added to the well and incubated at room temperature for 15 minutes. Next, 30 µL of an assay buffer solution containing human TSH (final concentration: 50 ng/mL, R&D Systems, Inc.) was added thereto and incubated at 37°C for one hour. A supernatant was removed, a Lysis and Detection Buffer 2(Cisbio) was added thereto, and the mixture was incubated at room temperature for one hour to prepare a cell lysate. According to the instruction manual of a cAMP Gs HiRange kit (Cisbio), the cell lysate, d2-labeled cAMP, and anti-cAMP Europium Cryptate labeled antibodies (Cisbio) were reacted together in a 384-well white microplate. Next, fluorescence intensity ratios (measurement wavelengths: 665 nm/620 nm) were measured using a multi-plate reader (PHERAstar FSX, BMG LABTECH, Japan). The fluorescence intensity ratio of each sample was converted to a cAMP content using a standard curve. The cAMP content was converted as a percentage of the control value to calculate a cAMP generation rate. The cAMP generation rates were plotted against the test compound concentrations using Prism (Graph Pad Software Inc.) to calculate IC50 values. The IC50's of the individual test compounds are shown in the above tables. In the tables, IC50 < 0.3 µM was denoted as A, and 0.3 µM ≤ IC50 < 30 µM was denoted as B. Cases where the IC50 values were not calculated for test compounds from which activity was recognized are denoted as C.
On to `CC(c1ccccc1)c1cc(NC(=O)OC(C)(C)C)ccc1-c1cccnc1/C=C/C(N)=O` (stereo not shown) [Example A-11, tert-Butyl (E)-(4-(2-(3-amino-3-oxopropan-1-en-1-yl)pyridin-3-yl)-3-(1-phenylethyl)phenyl)carbamate], for which the IC50 was in the range of 0.3 to 30 µM.

The compound `CC(C)(C)OC(=O)Nc1ccc(-c2cccnc2CNC(N)=O)c(C(=O)N2CCOCC2)c1F` [Example F-8, tert-Butyl (2-fluoro-3-(morpholine-4-carbonyl)-4-(2-(ureidomethyl)pyridin-3-yl)phenyl)carbamate] displayed an IC50 of more than 30 µM.

`Cc1c(NC(=O)OC(C)(C)C)ccc(-c2cccnc2CNC(N)=O)c1Cc1ccccc1F` [Example A-13, tert-Butyl (3-(2-fluorobenzyl)-2-methyl-4-(2-(ureidomethyl)pyridin-3-yl)phenyl)carbamate] displayed an IC50 of less than 0.3 µM.

Consider `NC(=O)NCc1ncccc1-c1ccc(NC(=O)OC2CC2)c(F)c1Cc1ccccc1F` [Example A-26, Cyclopropyl (2-fluoro-3-(2-fluorobenzyl)-4-(2-(ureidomethyl)pyridin-3-yl)phenyl)carbamate], for which the IC50 is 0.3 to 30 µM.

Turning to `CC(C)(C)OC(=O)Nc1ccc(-c2cccnc2CNC(N)=O)c(Cc2ncccc2F)c1F` [Example F-1, tert-Butyl (2-fluoro-3-((3-fluoropyridin-2-yl)methyl)-4-(2-(ureidomethyl)pyridin-3-yl)phenyl)carbamate], the IC50 fell in the range of 0.3 to 30 µM.

Regarding `NC(=O)NCc1ncccc1-c1ccc(NC(=O)N2CCCC2)c(F)c1Cc1ccccc1F` [Example G-6], the IC50 lay within 0.3 to 30 µM.

Consider `C[C@H](OC(=O)Nc1ccc(-c2ccnnc2CCC(N)=O)c(Oc2ccccc2F)c1F)C(F)(F)F` [Example D-4, (S)-1,1,1-Trifluoropropan-2-yl (4-(3-(3-amino-3-oxopropyl)pyridazin-4-yl)-2-fluoro-3-(2-fluorophenoxy)phenyl)carbamate], for which the IC50 was less than 0.3 µM.

As to `CC(C)(C)OC(=O)Nc1ccc(-c2ccnnc2CNC(N)=O)c(Oc2ccccc2F)c1F` [Example D-1, tert-Butyl (2-fluoro-3-(2-fluorophenoxy)-4-(3-(ureidomethyl)pyridazin-4-yl)phenyl)carbamate], the IC50 is 0.3 to 30 µM.

For `CC(C)(C)OC(=O)Nc1ccc(-c2cccnc2CNC(N)=O)c(C(=O)c2ccccc2C(F)(F)F)c1F` [Example E-2], the IC50 fell in the range of 0.3 to 30 µM.

`C[C@H](OC(=O)Nc1ccc(-c2cccnc2CNC(N)=O)c(Oc2ccccc2F)c1F)C(F)(F)F` [Example B-3, (S)-1,1,1-Trifluoropropan-2-yl (2-fluoro-3-(2-fluorophenoxy)-4-(2-(ureidomethyl)pyridin-3-yl)phenyl)carbamate] yielded an IC50 of less than 0.3 µM.

Take `Cc1ccccc1C(=O)c1c(-c2cccnc2CNC(N)=O)ccc(NC(=O)OC(C)(C)C)c1F` [Example E-1, tert-Butyl (2-fluoro-3-(2-methylbenzoyl)-4-(2-(ureidomethyl)pyridin-3-yl)phenyl)carbamate]: the IC50 was less than 0.3 µM.

Regarding `COc1ccccc1Cc1c(-c2cccnc2CNC(N)=O)ccc(NC(=O)OC(C)(C)C)c1F` [Example A-17, tert-Butyl (2-fluoro-3-(2-methoxybenzyl)-4-(2-(ureidomethyl)pyridin-3-yl)phenyl)carbamate], the IC50 is 0.3 to 30 µM.

`C[C@H](OC(=O)Nc1ccc(-c2cccnc2CCC(N)=O)c(C(=O)c2ccccc2F)c1F)C(F)(F)F` [Example E-4, (S)-1,1,1-Trifluoropropan-2-yl (4-(2-(3-amino-3-oxopropyl)pyridin-3-yl)-2-fluoro-3-(2-fluorobenzoyl)phenyl)carbamate] had an IC50 of less than 0.3 µM.

On to `NC(=O)NCc1ncccc1-c1ccc(NC(=O)OCC2CC(F)(F)C2)c(F)c1Oc1ccccc1F` [Example B-4], for which the IC50 was less than 0.3 µM.

In the case of `Cc1nnccc1-c1ccc(NC(=O)OC(C)(C)C)c(F)c1Cc1ccccc1F` [Example C-9, tert-Butyl (2-fluoro-3-(2-fluorobenzyl)-4-(3-methylpyridazin-4-yl)phenyl)carbamate], the IC50 lay in the range of 0.3 to 30 µM.

Compound `CC(C)(CO)OC(=O)Nc1ccc(-c2cccnc2CNC(N)=O)c(Cc2ccccc2F)c1F` [Example A-21, 1-Hydroxy-2-methylpropan-2-yl (2-fluoro-3-(2-fluorobenzyl)-4-(2-(ureidomethyl)pyridin-3-yl)phenyl)carbamate] came in with an IC50 of 0.3 to 30 µM.

`CC(C)(C)OC(=O)Nc1ccc(-c2cccnc2CNC(N)=O)c(Oc2ccccc2F)c1F` [Example B-2, tert-Butyl (2-fluoro-3-(2-fluorophenoxy)-4-(2-(ureidomethyl)pyridin-3-yl)phenyl)carbamate] gave an IC50 of less than 0.3 µM.

On to `CC(O)c1ncccc1-c1ccc(NC(=O)OC(C)(C)C)cc1Oc1ccccc1` (stereo not shown) [Example B-7, tert-Butyl (4-(2-(1-hydroxyethyl)pyridine-3-yl)-3-phenoxyphenyl)carbamate], for which the IC50 is more than 30 µM.

The compound `NC(=O)NCc1ncccc1-c1ccc(NC(=O)OCC2CC2)c(F)c1Cc1ccccc1F` [Example A-31, Cyclopropylmethyl (2-fluoro-3-(2-fluorobenzyl)-4-(2-(ureidomethyl)pyridin-3-yl)phenyl)carbamate] yielded an IC50 of less than 0.3 µM.

In turn, `NC(=O)NCc1ncccc1-c1ccc(NC(=O)O[C@H]2C[C@H](F)C2)c(F)c1Cc1ccccc1F` [Example A-5, trans-3-Fluorocyclobutyl (2-fluoro-3-(2-fluorobenzyl)-4-(2-(ureidomethyl)pyridin-3-yl)phenyl)carbamate] came in with a half-inhibitory concentration (IC50) of less than 0.3 µM.

On to `C[C@@H](OC(=O)Nc1ccc(-c2ccnnc2CCC(N)=O)c(Cc2ccccc2F)c1F)C1CC1` [Example C-6, (R)-1-Cyclopropylethyl (4-(3-(3-amino-3-oxopropyl)pyridazin-4-yl)-2-fluoro-3-(2-fluorobenzyl)phenyl)carbamate], for which the IC50 was less than 0.3 µM.

On to `N#Cc1ccccc1Cc1c(-c2cccnc2CNC(N)=O)ccc(NC(=O)OC2CC3CCC2CC3)c1F` (stereo not shown) [Example A-38, Bicyclo[2.2.2]octan-2-yl (3-(2-cyanobenzyl)-2-fluoro-4-(2-(ureidomethyl)pyridin-3-yl)phenyl)carbamate], for which the IC50 lay in the range of 0.3 to 30 µM.

For `CC(C)(C)OC(=O)Nc1ccc(-c2cccnc2CCC(N)=O)c(Oc2ccccc2F)c1F` [Example B-6, tert-Butyl (4-(2-(3-amino-3-oxopropyl)pyridin-3-yl)-2-fluoro-3-(2-fluorophenoxy)phenyl)carbamate], the IC50 was less than 0.3 µM.

Regarding `C[C@H](OC(=O)Nc1ccc(-c2ccnnc2CNC(N)=O)c(Oc2ccccc2F)c1F)C(F)(F)F` [Example D-2, (S)-1,1,1-Trifluoropropan-2-yl (2-fluoro-3-(2-fluorophenoxy)-4-(3-(ureidomethyl)pyridazin-4-yl)phenyl)carbamate], the IC50 was 0.3 to 30 µM.

Turning to `CC(C)(C)OC(=O)Nc1ccc(-c2cccnc2CCC(N)=O)c(Cc2ccccc2S(C)(=O)=O)c1F` [Example A-40, tert-Butyl (4-(2-(3-amino-3-oxopropyl)pyridin-3-yl)-2-fluoro-3-(2-(methylsulfonyl)benzyl)phenyl)carbamate], the IC50 fell in the range of 0.3 to 30 µM.

`C[C@H](OC(=O)Nc1ccc(-c2ccnnc2CCC(N)=O)c(Cc2ccccc2F)c1F)C(F)(F)F` [Example C-5, (S)-1,1,1-Trifluoropropan-2-yl (4-(3-(3-amino-3-oxopropyl)pyridazin-4-yl)-2-fluoro-3-(2-fluorobenzyl)phenyl)carbamate] came in with an IC50 of less than 0.3 µM.

For orientation: IC50 means the concentration that gives 50% inhibition. Read a low IC50 as inhibition by little substance.
